± gives the expanded uncertainty stated by the source.

As usually defined, the mass density is the mass of a sample divided by its volume. Broadly, the vapor or sublimation pressure is the pressure of vapour in equilibrium with the condensed phase.

The conditions of this data set: Liquid; for mass density: 298.15 K, 101.33 kPa, Vibrating tube method; for vapor or sublimation pressure: Closed cell (Static) method.

As to `COC(=O)OC` [dimethyl carbonate], the mass density was 1063.24 ± 0.1 kg/m3. In addition, the “vapor or sublimation pressure” value (383.15 K) worked out at 187 ± 6 kPa. The “vapor or sublimation pressure” value (403.15 K) was found to be 320 ± 6 kPa. Moreover, the “vapor or sublimation pressure” value (413.15 K) is listed as 414 ± 6 kPa.
Turning to `O` [water], under “393.15 K”, the “vapor or sublimation pressure” value came to 199 ± 6 kPa.
For `CCO` [ethanol], the mass density is reported as 785.09 ± 0.13 kg/m3. For the same molecule, the “vapor or sublimation pressure” value (393.15 K) was 429 ± 7 kPa.
As for `CO` [methanol], the mass density was 786.42 ± 0.13 kg/m3. For the same molecule, the “vapor or sublimation pressure” value (362.65 K) stood at 251 ± 6 kPa. The “vapor or sublimation pressure” value (363.15 K) came to 255 ± 6 kPa. Further, for the setting “383.15 K”, the “vapor or sublimation pressure” value stood at 481 ± 6 kPa. The “vapor or sublimation pressure” value (391.95 K) was 618 ± 6 kPa. Further, where the note is “392.95 K”, the “vapor or sublimation pressure” value was found to be 636 ± 7 kPa. The “vapor or sublimation pressure” value (393.15 K) is given as 640 ± 7 kPa. For the same molecule, the “vapor or sublimation pressure” value (403.15 K) came out at 843 ± 7 kPa. Besides, the “vapor or sublimation pressure” value (413.15 K) is on record as 1092 ± 7 kPa. For the same molecule, the “vapor or sublimation pressure” value (420.95 K) came out at 1316 ± 7 kPa. The “vapor or sublimation pressure” value (422.95 K) is listed as 1380 ± 8 kPa. Besides, where the note is “423.15 K”, the “vapor or sublimation pressure” value amounted to 1387 ± 8 kPa.

For the origin of these results see the NIST ThermoML archive (doi:10.1016/j.fluid.2019.03.019).
